Experimental data reported in the NIST ThermoML archive (doi:10.1016/j.jct.2010.12.014).
Several values for one entry are separate records, joined by “and”; a condition that tells them apart may be missing. Identical values can stand only once. Numbers after ± are expanded uncertainties.

How the values were obtained:
[1] = 298.15 K; 101.33 kPa; Liquid; Vibrating tube method
[2] = refractive index (Na D-line) (dimensionless); settings: 298.15 K; 101.33 kPa; Liquid; Standard Abbe refractometry
[3] = xn = mol fraction of the nth substance listed; settings: 298.15 K, 101 kPa, Liquid, Vibrating tube method

Structure (SMILES)	mass density [1] [kg/m3]	refractive index [2]	also measured
C1CCCCCCC1 [cyclooctane] + CCOS(=O)(=O)[O-].CCn1cc[n+](C)c1			mass density ([3]; x1 = 0.012): 1232.65 ± 0.42 kg/m3
CCOS(=O)(=O)[O-].CCn1cc[n+](C)c1 [1-ethyl-3-methylimidazolium ethyl sulfate] + CC1CCCCC1			mass density ([3]; x2 = 0.026): 1232.26 ± 0.42 kg/m3
C1CCCCC1 [cyclohexane]	773.8 ± 0.13	1.4236 ± 0.00031	
CCOS(=O)(=O)[O-].CCn1cc[n+](C)c1 [1-ethyl-3-methylimidazolium ethyl sulfate] + CCc1ccccc1			mass density ([3]; x2 = 0.124): 1210.43 ± 0.35 kg/m3 and 1210.4 ± 0.35 kg/m3
C1CCCCCCC1 [cyclooctane]	831.47 ± 0.24	1.45598 ± 0.00037	
CCOS(=O)(=O)[O-].CCn1cc[n+](C)c1 [1-ethyl-3-methylimidazolium ethyl sulfate] + C1CCCCC1			mass density ([3]; x2 = 0.027): 1230.94 ± 0.41 kg/m3

Now from value to molecule, other results behind:

mass density [1] [kg/m3]	refractive index [2]	Structure (SMILES)	also measured
765.02 ± 0.13	1.42062 ± 0.00031	CC1CCCCC1 [methylcyclohexane]	
862.51 ± 0.11	1.49304 ± 0.00031	CCc1ccccc1 [ethylbenzene]	
1237.23 ± 0.43	1.4791 ± 0.00037	CCOS(=O)(=O)[O-].CCn1cc[n+](C)c1 [1-ethyl-3-methylimidazolium ethyl sulfate]	
